Laboratory results from US20240217990A1 (Gilead Sciences, Inc., priority 2021, published 2024).
pEC50: −log10 of the molar value.

What was measured:
TLR7 = molecular target: T1, TLR7 (Homo sapiens, UniProt Q9NYK1); assay: TLR7 human PBMC cell-based assay (antagonist, GS-986 stimulated cytokine release); conditions: human PBMCs; TLR7 agonist GS-986 400 nM, 6 hours; cytokines (IL-6 and IFNα) in supernatant; read-out: TLR-7 EC50
T1 construct: Human peripheral blood mononuclear cells (PBMCs) consist of lymphocytes, monocytes and dendritic cells that express TLR7, TLR8 and TLR9; endogenous in cells; host or cells: cryopreserved human PBMCs from healthy donors
T1 sequence (Q9NYK1 27-1049): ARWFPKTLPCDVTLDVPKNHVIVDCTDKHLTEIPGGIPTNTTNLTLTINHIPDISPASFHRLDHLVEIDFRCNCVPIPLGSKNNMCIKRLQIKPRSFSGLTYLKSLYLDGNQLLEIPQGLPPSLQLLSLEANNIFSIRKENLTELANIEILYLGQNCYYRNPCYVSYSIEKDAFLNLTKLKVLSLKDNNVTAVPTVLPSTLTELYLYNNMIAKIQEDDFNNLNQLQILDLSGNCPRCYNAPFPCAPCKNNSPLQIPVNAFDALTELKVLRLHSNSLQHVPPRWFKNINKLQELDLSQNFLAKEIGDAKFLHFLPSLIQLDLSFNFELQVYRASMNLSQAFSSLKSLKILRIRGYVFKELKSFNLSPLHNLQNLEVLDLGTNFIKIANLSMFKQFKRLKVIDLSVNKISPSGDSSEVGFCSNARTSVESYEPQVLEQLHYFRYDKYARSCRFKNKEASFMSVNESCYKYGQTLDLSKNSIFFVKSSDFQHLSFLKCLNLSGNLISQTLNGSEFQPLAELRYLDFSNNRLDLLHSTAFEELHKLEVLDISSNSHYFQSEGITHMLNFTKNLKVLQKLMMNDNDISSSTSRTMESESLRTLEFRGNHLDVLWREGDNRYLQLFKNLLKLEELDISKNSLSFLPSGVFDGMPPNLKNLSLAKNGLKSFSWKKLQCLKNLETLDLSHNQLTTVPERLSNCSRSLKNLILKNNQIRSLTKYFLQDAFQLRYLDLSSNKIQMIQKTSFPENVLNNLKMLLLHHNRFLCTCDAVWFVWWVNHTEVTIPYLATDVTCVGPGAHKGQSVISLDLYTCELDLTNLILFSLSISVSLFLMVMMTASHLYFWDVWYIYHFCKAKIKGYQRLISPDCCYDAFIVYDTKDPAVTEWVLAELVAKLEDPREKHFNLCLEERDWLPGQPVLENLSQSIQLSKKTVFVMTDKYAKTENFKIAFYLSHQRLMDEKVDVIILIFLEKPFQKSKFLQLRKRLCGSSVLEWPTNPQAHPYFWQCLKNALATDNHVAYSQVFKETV
Outline: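 Cryopreserved healthy-donor PBMCs (100,000/well, RPMI-1640 + 10% FBS) pre-incubated 1 h at 37 °C with antagonist (10-point dose response, quadruplicate), then stimulated 6 h with GS-986 at 400 nM final. Supernatant IL-6 and IFNα measured by electrochemiluminescence immunoassay; EC50 from sigmoidal fit.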

TLR8 = molecular target: T2, TLR8 (Homo sapiens, UniProt Q9NR97); assay: TLR8 human PBMC cell-based assay (antagonist, Compound A stimulated cytokine release); conditions: human PBMCs; TLR8 agonist Compound A 800 nM, 6 hours; cytokines (TNFa and IL 12p40) in supernatant; read-out: TLR-8 EC50
T2 construct: Human peripheral blood mononuclear cells (PBMCs) consist of lymphocytes, monocytes and dendritic cells that express TLR7, TLR8 and TLR9; endogenous in cells; host or cells: cryopreserved human PBMCs from healthy donors
T2 sequence (Q9NR97 27-1041): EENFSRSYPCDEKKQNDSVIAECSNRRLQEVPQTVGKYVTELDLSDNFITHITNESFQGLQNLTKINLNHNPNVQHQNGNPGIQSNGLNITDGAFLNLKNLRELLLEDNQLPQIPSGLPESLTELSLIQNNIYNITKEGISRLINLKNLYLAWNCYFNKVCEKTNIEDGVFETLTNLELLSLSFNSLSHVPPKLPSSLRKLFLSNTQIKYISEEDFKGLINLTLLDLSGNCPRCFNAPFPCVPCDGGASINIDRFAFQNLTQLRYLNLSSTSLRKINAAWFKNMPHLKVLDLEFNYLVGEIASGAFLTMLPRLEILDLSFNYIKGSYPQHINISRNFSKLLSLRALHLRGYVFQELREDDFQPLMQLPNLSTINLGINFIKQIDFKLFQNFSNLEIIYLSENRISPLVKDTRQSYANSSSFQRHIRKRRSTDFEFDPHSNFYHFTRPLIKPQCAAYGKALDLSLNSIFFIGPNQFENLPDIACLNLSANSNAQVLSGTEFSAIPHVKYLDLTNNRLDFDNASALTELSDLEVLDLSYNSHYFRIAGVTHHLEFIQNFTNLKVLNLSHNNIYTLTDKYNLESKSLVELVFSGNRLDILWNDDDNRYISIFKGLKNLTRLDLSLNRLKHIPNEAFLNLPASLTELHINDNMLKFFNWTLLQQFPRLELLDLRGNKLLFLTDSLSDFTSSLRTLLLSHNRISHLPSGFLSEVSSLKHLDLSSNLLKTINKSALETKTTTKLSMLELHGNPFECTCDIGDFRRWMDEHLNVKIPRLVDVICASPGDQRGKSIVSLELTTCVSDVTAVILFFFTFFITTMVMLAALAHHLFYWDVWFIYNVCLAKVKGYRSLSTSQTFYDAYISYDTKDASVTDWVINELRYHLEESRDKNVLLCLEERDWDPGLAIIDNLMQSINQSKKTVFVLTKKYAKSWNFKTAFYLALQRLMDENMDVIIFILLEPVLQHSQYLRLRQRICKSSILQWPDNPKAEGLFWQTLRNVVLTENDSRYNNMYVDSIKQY
Outline: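 Cryopreserved donor PBMCs (100,000/well, RPMI + 10% FBS) were preincubated 1 h with antagonist (10-point dose response, quadruplicate), then stimulated with Compound A (800 nM final) for 6 h at 37 °C. TNFa and IL-12p40 in supernatants were measured by electrochemiluminescence; sigmoidal fits gave EC50.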

Structure (SMILES) | pEC50 (TLR7) | pEC50 (TLR8)
Cc1c(-c2[nH]c3cc(CN4CCC(C)(O)CC4)sc3c2C(C)C)cn2ncnc2c1C [Example 266] | 8.64 | 8.92
COc1cc(-c2[nH]c3cc(C(=O)N4CCNCC4)sc3c2C(C)C)cn2ncnc12 [Example 64, (6-isopropyl-5-(8-methoxy-[1,2,4]triazolo[1,5-a]pyridin-6-yl)-4H-thieno[3,2-b]pyrrol-2-yl)(piperazin-1-yl)methanone] | 9.05 | 8.48
Cc1c(-c2[nH]c3cc(C(=O)N(C)C4CCNCC4)sc3c2C(C)C)cn2ncnc2c1C [Example 150] | 9.00 | 8.60
Cc1cc(-c2[nH]c3cc(-c4nnc(N5CCNCC5)o4)sc3c2C(C)C)cc(C)n1 [Example 53] | 7.13 | 7.80
Cc1cc(-c2[nH]c3cc(C(=O)N4CC[C@H](C)[C@H](N)C4)sc3c2C(C)C)cn2ncnc12 [Example 105] | 8.34 | 7.79
Cc1cc(-c2[nH]c3cc(C(=O)N(C)C4CCNCC4)sc3c2C(C)C)cc(C)n1 [Example 10] | 7.74 | 7.26
Cc1cc(-c2[nH]c3cc(C4CCN(C(=O)C5(N)CCC5)CC4)sc3c2C(C)C)cn2ncnc12 [Example 197] | 7.48 | 7.10
Cc1cc(CN2CCC(c3cc4[nH]c(-c5cc(C)c6ncnn6c5)c(C(C)C)c4s3)CC2)no1 [Example 193] | 7.74 | 7.91
Cc1cc(-c2[nH]c3cc(C4CCNC5(CCC5)C4)sc3c2C(C)C)cn2ncnc12 (stereo not shown) [Example 296] | 8.42 | 8.09
Cc1cc(-c2[nH]c3cc(-c4cccc5c4CCNC5)sc3c2C(C)C)cn2ncnc12 [Example 225] | 7.42 | 8.28
Cc1cc(-c2[nH]c3cc(C4CCN(C(=O)C5CCCN(C)C5)CC4)sc3c2C(C)C)cn2ncnc12 (stereo not shown) [Example 203] | 9.40 | 8.25
Cc1cc(-c2[nH]c3cc(C4CCC(NC5CC6CC5O6)CC4)sc3c2C(C)C)cn2ncnc12 (stereo not shown) [Example 261] | 8.66 | 8.01
Cc1cc(-c2[nH]c3cc(C(=O)N4CCNC(C(F)F)C4)sc3c2C(C)C)cn2ncnc12 (stereo not shown) [Example 130] | 7.39 | 7.54
Cc1cc(-c2[nH]c3cc(C4CCC5(CC4)CN(C(=O)[C@@H]4COCCN4)C5)sc3c2C(C)C)cn2ncnc12 [Example 285] | 9.47 | 7.82
Cc1cc(-c2[nH]c3cc(-c4ccc(N5CCN(C)CC5)c(F)c4)sc3c2C(C)C)cn2ncnc12 [Example 272, 2-(3-Fluoro-4-(4-methylpiperazin-1-yl)phenyl)-6-isopropyl-5-(8-methyl-[1,2,4]triazolo[1,5-a]pyridin-6-yl)-4F1-thieno[3,2-b]pyrrole] | 8.74 | 8.31
Cc1cc(-c2[nH]c3cc(C4CCN(C(=O)[C@H]5CCN(C)C5)CC4)sc3c2C(C)C)cn2ncnc12 [Example 205] | 9.30 | 8.05
Cc1cc(-c2[nH]c3cc(C4CCN(C(=O)[C@H]5COCCN5)CC4)sc3c2C(C)C)cn2ncnc12 [Example 292] | 9.52 | 8.10
Cc1cc(-c2[nH]c3cc(C4=NC5(CCNCC5)CO4)sc3c2C(C)C)cn2ncnc12 [Example 50, 2-(6-isopropyl-5-(8-methyl-[1,2,4]triazolo[1,5-a]pyridin-6-yl)-4H-thieno[3,2-b]pyrrol-2-yl)-3-oxa-1,8-diazaspiro[4.5]dec-1-ene] | 9.70 | 8.34

Structure (SMILES) | pEC50 (TLR7) | pEC50 (TLR8)
Cc1cc(-c2[nH]c3cc(C4CCN(C5CCC5)CC4)sc3c2C(C)C)cn2ncnc12 [Example 195] | 8.60 | 9.52
Cc1cc(-c2[nH]c3cc(-c4cnn(C5CCN(CCO)CC5)c4)sc3c2C(C)C)cn2ncnc12 [Example 189] | 8.89 | 9.15
Cc1cc(-c2[nH]c3cc(C(=O)N4C[C@H]5C[C@@H]4CN5)sc3c2C(C)C)cc(C)n1 [Example 21] | 7.15 | 7.18
Cc1c(-c2[nH]c3cc(-c4nc5ccc(N6CCNCC6)cc5[nH]4)sc3c2C(C)C)cn2ncnc2c1C [Example 239] | 8.18 | 7.60
Cc1cc(-c2[nH]c3cc(-c4ccc5c(c4)CNCC5)sc3c2C(C)C)cn2ncnc12 [Example 211] | 8.72 | 9.30
Cc1cc(-c2[nH]c3cc(C(=O)N(C)C4CCC(N5CC6CCC(C5)O6)CC4)sc3c2C(C)C)cn2ncnc12 (stereo not shown) [Example 248] | 8.12 | 7.71
Cc1cc(-c2[nH]c3cc(C(=O)NC4CCNCC4)sc3c2C(C)C)cc(C)n1 [Example 4] | 6.23 | 6.23
Cc1cc(-c2[nH]c3cc(C(=O)N(C)C4CCN(C5COC5)CC4)sc3c2C(C)C)cn2ncnc12 [Example 139] | 7.82 | 7.97
Cc1cc(-c2[nH]c3cc(C(=O)N(C)CCN(C)C)sc3c2C(C)C)cn2ncnc12 [Example 136] | 9.15 | 7.53
Cc1cc(-c2[nH]c3cc(C(=O)N(C)[C@H]4CCNC4)sc3c2C(C)C)cc(C)n1 [Example 23] | 7.70 | 7.17
Cc1cc(-c2[nH]c3cc(C(=O)N(C)[C@H]4CNC[C@@H]4F)sc3c2C(C)C)cn2ncnc12 [Example 58] | 7.78 | 7.68
Cc1cc(-c2[nH]c3cc(C4CC5CCC4CN5)sc3c2C(C)C)cn2ncnc12 (stereo not shown) [Example 282] | 8.88 | 7.93
Cc1cc(-c2[nH]c3cc(C(=O)N[C@H]4CCNC4)sc3c2C(C)C)cc(C)n1 [Example 6] | 6.05 | < 6.00
Cc1cc(-c2[nH]c3cc(C4CCN(C(=O)[C@H]5CCCN5C)CC4)sc3c2C(C)C)cn2ncnc12 [Example 199] | 8.41 | 8.28
Cc1cc(-c2[nH]c3cc(C(=O)N4CCNC[C@H]4C)sc3c2C(C)C)cn2ncnc12 [Example 148] | 8.32 | 7.96
Cc1cc(-c2[nH]c3cc(C4CCN(C(=O)C5CCN(C)C5)CC4)sc3c2C(C)C)cn2ncnc12 (stereo not shown) [Example 201] | 9.15 | 8.07
Cc1cc(-c2[nH]c3cc(C4CC4C(=O)N4CCN(CCO)CC4)sc3c2C(C)C)cn2ncnc12 (stereo not shown) [Example 306] | 7.64 | 7.60
